Assay results published in patent US12491182B2, “Polymorphs of triazole antifungal compound PC945” (Pulmocide Limited, priority 2019, dated 2025).

Test: Micronisation: particle size distribution and polymorphic integrity
Type: physicochemical
Conditions: for polymorphic integrity during micronisation (XRPD): XRPD trace after milling compared with before; for particle size distribution D10 / particle size distribution D50 / particle size distribution D90: after micronisation
Excerpt: Liquid suspension and aerosol formulations (whether pressurised or unpressurised) will typically contain the compound of the invention in particulate form, for example with a D50 of 0.5-10 μm, suitably around 1-5 μm, such as 1-2 μm. Suitably, the compound of the invention in particulate form has a D10 of 0.2 to 1 μm, such as 0.2 to 0.5 μm. Suitably, the compound of the invention in particulate form has a D90 of 2 to 6 μm such as 3 to 4 μm. The particulate form of the compound may, for example, be a micronised form. Micronisation may be performed using a jet mill such as those manufactured by Hosokawa Alpine. The resultant particle size distribution may be measured using laser diffraction (e.g. with a Malvern Mastersizer 2000S instrument). Particle size distributions may be represented using D10, D50 and D90 values. The Dso median value of particle size distributions is defined as the particle size in microns that divides the distribution in half. The measurement derived from laser diffraction is more accurately described as a volume distribution and consequently the D50 value obtained using this procedure is more meaningfully referred to as a Dv50 value (median for a volume distribution). As used herein Dv values refer to particle size distributions measured using laser diffraction. Similarly, D10 and D90 values, used in the context of laser diffraction, are taken to mean Dv10 and Dv90 values and refer to the particle size whereby 10% of the distribution lies below the D10 value, and 90% of the distribution lies below the D90 value, respectively.
A sample of crude input material (100 g, Form 3) was suspended in a mixture of 5% water in acetone (1.00 L), a seed of Form 1 (100 mg) was added and the mixture was stirred at RT overnight. The suspension was filtered and the filter cake was washed with a mixture of 5% water in acetone (20 mL) and the solids dried at 40° C. to provide polymorphic Form 1 as a white powder (85.5 g, 85.5% recovery, 98.7% purity by HPLC) as determined from its DSC trace (FIG. 9). Micronisation of the product so obtained provided a powder for which the particle size distribution, expressed in D values, was as follows: […].
Micronisation of the product so obtained provided a powder for which the particle size distribution, expressed in D values, was as follows: […]. It will be appreciated by those skilled in the art that these characteristics are suitable for a product intended for administration by inhalation. […] The Form 2 polymorph is therefore susceptible to and stable towards the micronisation process required to derive a material with the properties necessary for its intended purpose.

SMILES | polymorphic integrity during micronisation (XRPD) | particle size distribution D10 | particle size distribution D50 | particle size distribution D90
Cc1cc(N2CCN(c3ccc(C(=O)Nc4ccc(F)cc4)cc3)CC2)ccc1OC[C@@H]1CO[C@@](Cn2cncn2)(c2ccc(F)cc2F)C1 [Form 1, 4-(4-(4-(((3R,5R)-5-((1H-1,2,4-triazol-1-yl)methyl)-5-(2,4-difluorophenyl)tetrahydrofuran-3-yl)methoxy)-3-methylphenyl)piperazin-1-yl)-N-(4-fluorophenyl)benzamide] | polymorphic integrity was retained | 0.75 µm | 1.59 µm | 3.23 µm
Cc1cc(N2CCN(c3ccc(C(=O)Nc4ccc(F)cc4)cc3)CC2)ccc1OC[C@@H]1CO[C@@](Cn2cncn2)(c2ccc(F)cc2F)C1 [Form 2, 4-(4-(4-(((3R,5R)-5-((1H-1,2,4-triazol-1-yl)methyl)-5-(2,4-difluorophenyl)tetrahydrofuran-3-yl)methoxy)-3-methylphenyl)piperazin-1-yl)-N-(4-fluorophenyl)benzamide] | no significant change | 0.42 µm | 1.24 µm | 3.57 µm
